Each molecule was assayed against T1, GABAB receptor (Rattus norvegicus, UniProt O88871+Q9Z0U4) (assay: In vitro [35S]GTPγS binding assay in rat cortical membranes). Conditions: PAM EC50, [35S]GTPγS binding, read-out: In vitro PAM potency.
T1 construct: from tissue; host or cells: rat brain cortex membranes
Format: biochemical
Protocol: In Vitro [^35S]GTPγS Binding Assay in Rat Cortical Membranes
Cortices of freshly harvested rat brains were dissected on an ice-cold surface and homogenized by a glass Dounce homogeniser immediately in ice-cold buffer containing 50 mM Tris, 5 mM MgCl2 and 1 mM EDTA (pH=7.6). Tissue homogenates were centrifuged at 40000 g for 15 min at 4° C. Membrane pellets were resuspended in the same buffer and membranes were incubated for 10 min at 30° C. in a shaking water bath to eliminate endogenous GABA. Homogenates were centrifuged again under the same conditions. The final pellets were resuspended in ice-cold buffer (pH=7.6) containing 50 mM Tris, 100 mM NaCl, 7 mM MgCl2, 1 mM EDTA and 1 mM dithiotreithol (DTT) to yield a concentration of 20 mg tissue weight/ml and frozen at −70° C. until use. The assay was done in a buffer containing 50 mM Tris (pH=7.4), 100 mM NaCl, 7 mM MgCl2, 1 mM EDTA and 1 mM DTT. Each assay tube contained 150 μL GDP (in a final concentration of 50 μM), 100 μL ligand and 125 μL of the membrane suspension ([…]). The assay tubes were preincubated for 10 min at 30° C. to assure equilibrium. Nonspecific binding was determined in the presence of 10 μM GTPγS; basal binding was determined in the presence of buffer only. After addition of […] [^35S]GTPγS in a volume of 25 μL to the tubes, membranes were incubated for an additional 60 min at 30° C. The assay was terminated by rapid filtration through Packard UniFilter GF/B using a Packard harvester and washed four times with 1 ml ice-cold buffer. After drying the filters at 40° C. for 1 h, 40 μL Microscint (Packard) was added to the filters and radioactivity of the filters was determined by a TopCount NXT (PerkinElmer, Waltham, MA; Alper and Nelson, Eur. J. Pharmacol. 1998, 343, 303-312; Rinken et al, Biochem. Pharmacol. 1999, 57, 155-162). Data thus gathered were used to determine PAM EC50 values for each compound as primary in vitro activity end point.
In Table 1 compounds of this invention measured in the [^35S]GTPγS binding assay are listed.

T1 sequence (O88871 41-940): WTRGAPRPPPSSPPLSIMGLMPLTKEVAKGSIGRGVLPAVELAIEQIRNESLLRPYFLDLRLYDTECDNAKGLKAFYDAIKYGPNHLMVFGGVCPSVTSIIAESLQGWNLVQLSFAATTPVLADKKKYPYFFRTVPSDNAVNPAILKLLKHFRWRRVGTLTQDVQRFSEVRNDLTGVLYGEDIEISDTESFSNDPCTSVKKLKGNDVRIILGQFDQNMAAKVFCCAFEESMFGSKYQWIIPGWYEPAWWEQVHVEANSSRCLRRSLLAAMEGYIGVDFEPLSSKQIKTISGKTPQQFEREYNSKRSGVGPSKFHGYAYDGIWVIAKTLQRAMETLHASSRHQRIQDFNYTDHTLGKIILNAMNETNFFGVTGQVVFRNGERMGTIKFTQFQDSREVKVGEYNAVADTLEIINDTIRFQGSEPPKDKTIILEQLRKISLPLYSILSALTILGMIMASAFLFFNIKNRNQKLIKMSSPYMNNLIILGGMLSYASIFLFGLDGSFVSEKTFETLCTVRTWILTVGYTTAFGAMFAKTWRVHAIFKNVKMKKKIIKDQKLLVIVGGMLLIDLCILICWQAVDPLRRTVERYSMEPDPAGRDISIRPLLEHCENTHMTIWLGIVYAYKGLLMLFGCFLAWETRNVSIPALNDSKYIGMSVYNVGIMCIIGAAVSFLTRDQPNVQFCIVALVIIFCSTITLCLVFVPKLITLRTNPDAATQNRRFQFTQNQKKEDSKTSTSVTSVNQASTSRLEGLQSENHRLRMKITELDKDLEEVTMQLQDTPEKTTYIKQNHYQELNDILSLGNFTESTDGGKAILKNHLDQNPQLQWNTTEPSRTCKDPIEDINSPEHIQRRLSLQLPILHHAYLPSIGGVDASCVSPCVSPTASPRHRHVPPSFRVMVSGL
T1 sequence (Q9Z0U4 17-960 limits assumed): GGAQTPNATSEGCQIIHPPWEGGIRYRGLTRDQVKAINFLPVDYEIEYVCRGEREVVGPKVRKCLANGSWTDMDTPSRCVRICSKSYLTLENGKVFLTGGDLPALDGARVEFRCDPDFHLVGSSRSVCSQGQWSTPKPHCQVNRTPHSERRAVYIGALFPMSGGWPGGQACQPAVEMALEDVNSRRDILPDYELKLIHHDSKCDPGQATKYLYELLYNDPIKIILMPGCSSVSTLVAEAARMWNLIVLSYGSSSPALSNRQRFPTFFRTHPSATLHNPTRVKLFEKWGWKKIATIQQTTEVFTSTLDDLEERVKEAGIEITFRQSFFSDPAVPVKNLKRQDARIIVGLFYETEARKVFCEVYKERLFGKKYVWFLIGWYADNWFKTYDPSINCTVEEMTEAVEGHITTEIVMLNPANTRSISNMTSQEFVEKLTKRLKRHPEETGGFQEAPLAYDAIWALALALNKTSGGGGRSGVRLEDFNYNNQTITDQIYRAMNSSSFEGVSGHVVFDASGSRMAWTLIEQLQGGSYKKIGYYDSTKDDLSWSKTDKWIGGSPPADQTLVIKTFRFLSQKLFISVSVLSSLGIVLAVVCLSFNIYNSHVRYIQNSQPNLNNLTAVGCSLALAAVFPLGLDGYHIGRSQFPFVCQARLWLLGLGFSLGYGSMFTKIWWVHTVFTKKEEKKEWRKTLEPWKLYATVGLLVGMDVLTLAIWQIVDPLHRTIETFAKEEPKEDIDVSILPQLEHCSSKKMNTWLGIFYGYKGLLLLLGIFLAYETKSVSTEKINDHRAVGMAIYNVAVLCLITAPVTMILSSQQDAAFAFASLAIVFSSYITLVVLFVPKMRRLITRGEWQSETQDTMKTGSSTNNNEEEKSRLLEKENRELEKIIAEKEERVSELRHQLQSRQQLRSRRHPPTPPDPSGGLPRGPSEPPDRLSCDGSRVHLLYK

| SMILES | EC50 [µM] |
| --- | --- |
| CCc1c(C)nc2cc([C@H]3CC[C@H](C(F)(F)F)CC3)nn2c1[C@]1(C)CCCN(C(C)=O)C1 [Example 34] | < 0.1 |
| CCc1c(C)nc2cc([C@H]3CC[C@H](C(F)(F)F)CC3)nn2c1[C@@]1(C)CCCN(C(C)=O)C1 [Example 35] | < 0.1 |
| CC(=O)N1CCC[C@](C)(c2c(C)c(C)nc3cc([C@H]4CC[C@H](C(F)(F)F)CC4)nn23)C1 [Example 37] | 0.1 to 1 |
| CC(=O)N1CCCC(c2c(C(C)C)c(C)nc3cc([C@H]4CC[C@H](C(F)(F)F)CC4)nn23)C1 (stereo partly drawn) [Example 40] | < 0.1 |
| CCc1c(C)nc2cc([C@H]3CC[C@H](C(F)(F)F)CC3)nn2c1[C@]1(C)CCCN(S(C)(=O)=O)C1 [Example 44] | < 0.1 |
| CC(=O)N1CCC[C@@](C)(c2c(C)c(C)nc3cc([C@H]4CC[C@H](C(F)(F)F)CC4)nn23)C1 [Example 45] | 0.1 to 1 |
| Cc1nc2cc([C@H]3CC[C@H](C(F)(F)F)CC3)nn2c([C@]2(C)CCCN(CC(F)(F)F)C2)c1C [Example 48] | 0.1 to 1 |
| Cc1nc2cc([C@H]3CC[C@H](C(F)(F)F)CC3)nn2c([C@]2(C)CCCN(CC(N)=O)C2)c1C [Example 49] | 1 to 10 |
| Cc1cc([C@]2(C)CCCN(CC#N)C2)n2nc([C@H]3CC[C@H](C(F)(F)F)CC3)cc2n1 [Example 50] | 0.1 to 1 |
| CCc1c(C)nc2cc([C@H]3CC[C@H](C(F)(F)F)CC3)nn2c1[C@@H]1CCCN(C(=O)OC)C1 [Example 51] | 0.1 to 1 |
| Cc1nc2cc([C@H]3CC[C@H](C(F)(F)F)CC3)nn2c([C@@H]2CCCN(C(=O)CN)C2)c1C [Example 52] | 1 to 10 |
| Cc1cc([C@@H]2CCCN(C(=O)C3CC3)C2)n2nc([C@H]3CC[C@H](C(F)(F)F)CC3)cc2n1 [Example 54] | 0.1 to 1 |
| Cc1cc(C2CN(C3COC3)CCC2(C)C)n2nc([C@H]3CC[C@H](C(F)(F)F)CC3)cc2n1 (stereo partly drawn) [Example 60] | 0.1 to 1 |
| CC(=O)N1CCCC(CF)(c2cc(C)nc3cc([C@H]4CC[C@H](C(F)(F)F)CC4)nn23)C1 (stereo partly drawn) [Example 62] | 0.1 to 1 |
| Cc1cc([C@@H]2CCCN(C3CCOC3)C2)n2nc([C@H]3CC[C@H](C(F)(F)F)CC3)cc2n1 (stereo partly drawn) [Example 63] | 0.1 to 1 |
| Cc1cc([C@]2(C)CCCN(C(=N)N)C2)n2nc([C@H]3CC[C@H](C(F)(F)F)CC3)cc2n1 [Example 64] | 1 to 10 |
| Cc1cc([C@@H]2CCCN(C(=O)N3CCOCC3)C2)n2nc([C@H]3CC[C@H](C(F)(F)F)CC3)cc2n1 [Example 65] | 1 to 10 |
| Cc1cc([C@]2(C)CCCN(C=O)C2)n2nc([C@H]3CC[C@H](C(F)(F)F)CC3)cc2n1 [Example 69] | 0.1 to 1 |
| Cc1cc([C@]2(C)CCCN(S(N)(=O)=O)C2)n2nc([C@H]3CC[C@H](C(F)(F)F)CC3)cc2n1 [Example 71] | 1 to 10 |
| CCC1CCN(C=O)CC1c1cc(C)nc2cc([C@H]3CC[C@H](C(F)(F)F)CC3)nn12 (stereo partly drawn) [Example 72] | 0.1 to 1 |
| COC(=O)N1CC(c2c(C)c(C)nc3cc([C@H]4CC[C@H](C(F)(F)F)CC4)nn23)CC(F)(F)C1 (stereo partly drawn) [Example 74] | 0.1 to 1 |
| COC(=O)N1CC[C@H](C)[C@H](c2c(C)c(C)nc3cc([C@H]4CC[C@H](C(F)(F)F)CC4)nn23)C1 [Example 77] | < 0.1 |
| Cc1cc(C2(C)CN(C=O)CC(F)(F)C2)n2nc([C@H]3CC[C@H](C(F)(F)F)CC3)cc2n1 (stereo partly drawn) [Example 78] | 0.1 to 1 |
| Cc1nc2cc([C@H]3CC[C@H](C(F)(F)F)CC3)nn2c(C2CN(C(=O)C3(C)COC3)CC(F)(F)C2)c1C (stereo partly drawn) [Example 79] | 0.1 to 1 |
| Cc1nc2cc([C@H]3CC[C@H](C(F)(F)F)CC3)nn2c(C2CN(C=O)CCO2)c1C (stereo partly drawn) [Example 80] | 0.1 to 1 |
| Cc1cc(C2CN(C=O)CCS2(=O)=O)n2nc([C@H]3CC[C@H](C(F)(F)F)CC3)cc2n1 (stereo partly drawn) [Example 87] | ≥ 10 |
| Cc1cc([C@H]2CCCN(C=O)[C@@H]2C)n2nc([C@H]3CC[C@H](C(F)(F)F)CC3)cc2n1 [Example 89] | 0.1 to 1 |

Results, then the molecule that gave them:

| EC50 [µM] | SMILES |
| --- | --- |
| 1 to 10 | CC(=O)N1CCC[C@](C)(c2cc(C)nc3cc([C@H]4CC[C@H](C(F)(F)F)CC4)nn23)C1 [Example 36] |
| < 0.1 | CC(=O)N1CCC[C@@](C)(c2cc(C)nc3cc([C@H]4CC[C@H](C(F)(F)F)CC4)nn23)C1 [Example 41] |
| 1 to 10 | Cc1cc([C@@H]2CN(C(=O)CN)CC[C@H]2C)n2nc([C@H]3CC[C@H](C(F)(F)F)CC3)cc2n1 [Example 53] |
| 0.1 to 1 | Cc1cc(C2CN(C=O)CCC2(C)C)n2nc([C@H]3CC[C@H](C(F)(F)F)CC3)cc2n1 (stereo partly drawn) [Example 59] |
| 0.1 to 1 | Cc1cc(C2CN(C)CCC2(C)C)n2nc([C@H]3CC[C@H](C(F)(F)F)CC3)cc2n1 (stereo partly drawn) [Example 61] |
| 0.1 to 1 | CCC1CCN(C(=O)OC)CC1c1cc(C)nc2cc([C@H]3CC[C@H](C(F)(F)F)CC3)nn12 (stereo partly drawn) [Example 67] |
| 0.1 to 1 | CC(=O)N1CCOC(c2c(C)c(C)nc3cc([C@H]4CC[C@H](C(F)(F)F)CC4)nn23)C1 (stereo partly drawn) [Example 70] |
| 1 to 10 | COC(=O)N1CCOC(C)(c2cc(C)nc3cc([C@H]4CC[C@H](C(F)(F)F)CC4)nn23)C1 (stereo partly drawn) [Example 73] |
| 0.1 to 1 | Cc1cc(C2CN(C=O)CCO2)n2nc([C@H]3CC[C@H](C(F)(F)F)CC3)cc2n1 (stereo partly drawn) [Example 83] |
| 0.1 to 1 | COC(=O)N1CCOC(c2cc(C)nc3cc([C@H]4CC[C@H](C(F)(F)F)CC4)nn23)C1 (stereo partly drawn) [Example 84] |
| 0.1 to 1 | Cc1cc([C@H]2CN(C=O)CCO2)n2nc([C@H]3CC[C@H](C(F)(F)F)CC3)cc2n1 [Example 86] |
| 0.1 to 1 | CC(=O)N1CCO[C@@H](c2c(C)c(C)nc3cc([C@H]4CC[C@H](C(F)(F)F)CC4)nn23)C1 [Example 88] |
| ≥ 10 | COC(=O)N1CCS(=O)(=O)[C@@H](c2cc(C)nc3cc([C@H]4CC[C@H](C(F)(F)F)CC4)nn23)C1 [Example 90] |
| 1 to 10 | COC(=O)N1CCO[C@H](c2cc(C)nc3cc([C@H]4CC[C@H](C(F)(F)F)CC4)nn23)C1 [Example 93] |
| 1 to 10 | Cc1cc([C@@H]2CN(C=O)CCO2)n2nc([C@H]3CC[C@H](C(F)(F)F)CC3)cc2n1 [Example 94] |
| 1 to 10 | CCOC(=O)N1CCO[C@H](c2cc(C)nc3cc([C@H]4CC[C@H](C(F)(F)F)CC4)nn23)C1 [Example 95] |
| 1 to 10 | COC(=O)N1C[C@@H](c2cc(C)nc3cc([C@H]4CC[C@H](C(F)(F)F)CC4)nn23)OC[C@@H]1C [Example 96] |
| 0.1 to 1 | COC(=O)N1CCC[C@H](c2cc(C)nc3cc([C@H]4CC[C@H](C(F)(F)F)CC4)nn23)[C@@H]1C [Example 97] |
| 1 to 10 | Cc1cc([C@@H]2CN(C=O)[C@@H](C)CO2)n2nc([C@H]3CC[C@H](C(F)(F)F)CC3)cc2n1 [Example 98] |
| 0.1 to 1 | Cc1cc([C@H]2CN(C(=O)OC(C)C)CCO2)n2nc([C@H]3CC[C@H](C(F)(F)F)CC3)cc2n1 [Example 99] |
| 0.1 to 1 | COCCOC(=O)N1CCO[C@@H](c2cc(C)nc3cc([C@H]4CC[C@H](C(F)(F)F)CC4)nn23)C1 [Example 100] |
| < 0.1 | COC(=O)N1C[C@H](c2cc(C)nc3cc([C@H]4CC[C@H](C(F)(F)F)CC4)nn23)OC[C@@H]1C [Example 102] |
| 0.1 to 1 | Cc1cc([C@H]2CN(C=O)[C@@H](C)CO2)n2nc([C@H]3CC[C@H](C(F)(F)F)CC3)cc2n1 [Example 103] |
| 1 to 10 | Cc1cc(C2CCCN(C)C2=O)n2nc([C@H]3CC[C@H](C(F)(F)F)CC3)cc2n1 (stereo partly drawn) [Example 105] |

— US12473293B2, “Pharmacologically active heterocyclic-substituted pyrazolo[1,5-a]pyrimidine derivatives” (Richter Gedeon Nyrt., priority 2020, dated 2025)
